Test [1] has as its system NHDF (normal human dermal fibroblast) cells. The experiment in a line: MTT cytotoxicity assay. Format: cell-based. The conditions noted are these: NHDF cell cultures, 24 h incubation, mean ± SD. The protocol: NHDF (normal human dermal fibroblast) cells, sourced from the American Type Culture Collection (ATCC), were maintained in DMEM without phenol red, enhanced with 10% fetal bovine serum (FBS), 2 mM L-glutamine, and 25 μg/mL gentamicin. The cells were incubated under conditions of 5% CO2, at a temperature of 37 °C, and 95% humidity. We monitored the cells bi-weekly, utilizing or subculturing them once they reached over 70% confluence. For all experimental setups, cells were plated at a density of 10,000 cells per well and allowed to recover in a CO2 incubator for 24 h.
The compounds under investigation were dissolved in DMSO to achieve a final concentration of 10 mM and then stored at −20 °C. Lipopolysaccharide (LPS) from Escherichia coli (Sigma-Aldrich, Saint Louis, MO, USA; catalog no. L2630) was dissolved in distilled water to a concentration of […]. The stock solution of LPS was stored at −20 °C for up to 6 months. Final concentrations of LPS used in this study were 50 µg/mL. Prior to use, the solutions were thawed at room temperature. For each compound, 8 different concentrations in the range of 500–10 μM were prepared in the culture medium.
The cytotoxicity of the test compound was assessed using the MTT assay. After cell seeding and overnight incubation, the supernatant was removed, and the compounds were added at concentrations ranging from 500 to 10 µM. Control cells were treated with complete medium only, while cells treated with medium containing DMSO at the highest compound concentration were included as the solvent control. After the incubation period, the supernatant was removed, and 50 µL of a 1.0 mg/mL MTT solution was added to each well and incubated for 2 h at 37 °C. The medium was then removed, and 100 µL of DMSO was added to each well. Finally, absorbance was measured at 570 nm using a Multiskan GO spectrophotometer.
Cell viability was calculated according to Equation (1): (Ai − Am)/(Ac − Am) × 100(Ai − Am)/(Ac − Am) × 100(1) where Ai is the absorbance of the tested concentration, Am is the absorbance of the medium, and Ac is the absorbance of the control. Based on the cytotoxicity test results, the IC50 was calculated using a 4-point lognormal distribution with a Hill coefficient. Experiments were performed in triplicate.
Background: Formazan colour is commonly taken as a measure of viable cells.

Test [2] is described as follows: ABTS radical scavenging assay. Format: physicochemical. The conditions noted are these: 30 min incubation; mean ± SD, n = 3. How it is done:
The activity of ABTS (2,2′-azino-bis(3-ethylbenzothiazoline-6-sulphonic acid)) was assessed to evaluate the radical scavenging potential of the synthesized compounds. The ABTS reagent was generated by combining equal volumes of a 7 mM aqueous solution of ABTS and a 2.45 mM potassium persulfate solution. This mixture was then incubated in the dark at room temperature for 16 h. Following incubation, the solution was diluted with ethanol until the absorbance reached approximately 0.7 ± 0.05 at a wavelength of 734 nm. The stock solutions of the synthesized compounds in DMSO were serially diluted to obtain concentrations ranging from 500 μM to 10 μM in ethanol. The ABTS reagent was then treated with various concentrations of each compound and incubated in the dark at room temperature. After 30 min of incubation, the absorbance was measured at 734 nm, using ethanol as the blank control. Ascorbic acid served as the standard for comparison, and the IC50 values for the synthesized compounds were calculated using the following Equation (3):(3) %ABTS scavenging activity=Abscontrol−Abs sample/Abs (control)×100

In test [3] the target is T1, COX-1 (Ovis aries, UniProt P05979).
T1 construct: purchased
T1 sequence (P05979 25-600): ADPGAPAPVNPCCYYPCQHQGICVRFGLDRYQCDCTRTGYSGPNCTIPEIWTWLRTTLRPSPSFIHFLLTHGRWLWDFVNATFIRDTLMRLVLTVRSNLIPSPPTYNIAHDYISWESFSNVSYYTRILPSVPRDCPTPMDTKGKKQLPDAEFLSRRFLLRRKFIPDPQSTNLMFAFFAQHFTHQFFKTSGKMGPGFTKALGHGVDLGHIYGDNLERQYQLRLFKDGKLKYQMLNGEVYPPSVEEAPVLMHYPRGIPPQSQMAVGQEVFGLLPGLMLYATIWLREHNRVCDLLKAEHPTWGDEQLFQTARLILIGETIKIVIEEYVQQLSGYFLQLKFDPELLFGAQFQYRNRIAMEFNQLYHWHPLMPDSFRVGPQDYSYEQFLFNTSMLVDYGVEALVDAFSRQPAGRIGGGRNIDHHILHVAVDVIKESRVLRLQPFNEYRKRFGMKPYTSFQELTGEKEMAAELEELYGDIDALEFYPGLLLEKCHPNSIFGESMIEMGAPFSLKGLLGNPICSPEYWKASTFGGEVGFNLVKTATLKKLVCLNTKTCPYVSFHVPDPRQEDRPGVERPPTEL
Briefly: Cyclooxygenase inhibition assay (colorimetric, peroxidase activity, TMPD oxidation). Format: biochemical. The conditions noted are these: incubation 2 min; mean ± SD. The protocol:
(§1) To conduct the cyclooxygenase inhibition assay, we utilized a kit from the manufacturer that contained 150 μL of assay buffer, 10 μL of heme, and 10 μL of either COX-1 or COX-2 enzyme. Each sample was prepared in triplicate, with the addition of 10–500 μM of the test compounds and […] of solvents such as methanol, ethanol, and dimethyl sulfoxide (DMSO). We then added 20 μL of N,N,N cent,N cent-tetramethyl-p-phenylenediamine (TMPD) to each well. Arachidonic acid was introduced to initiate the reaction, which was allowed to proceed for 2 min. Following the incubation period, the extent of TMPD oxidation was measured using the multiscan Go microplate reader at a wavelength of 590 nm (Thermo Fisher Scientific, Waltham, MA, USA).
Cyclooxygenase (COX) peroxidase activity was evaluated using a colorimetric assay. […] The incubation period was maintained at 2 min, following the manufacturer’s guidelines. […] We determined the concentrations of all compounds required for 50% inhibition of COX-1 and COX-2. IC50 values were then calculated, and the ratio of IC50 values for both cyclooxygenase isoforms allowed us to assess the selectivity of the tested structures for COX-1 and COX-2.

Test [4] can be described thus: DPPH radical scavenging assay. Format: physicochemical. As to conditions: 30 min incubation, 37 °C; mean ± SD, n = 3. How it is done: The DPPH assay was conducted to assess the radical scavenging capabilities of the synthesized compounds. Stock solutions of the compounds were formulated in DMSO and subsequently diluted serially to achieve test concentrations ranging from 500 to 10 μM in ethanol. Each sample’s ethanolic DPPH solution was treated with the respective test concentrations and incubated at 37 °C. After a 30 min incubation period, the absorbance was measured at 517 nm, using ethanol as the blank control. Ascorbic acid served as the reference standard, and the IC50 values for the synthesized compounds were determined using the following Equation (2):(2) %DPPH scavenging activity=Abscontrol−Abs sample/Abs (control)×100

Test [5] concerns the target T2, COX-2 (Homo sapiens, UniProt P35354).
T2 construct: purchased
T2 sequence (P35354 18-604): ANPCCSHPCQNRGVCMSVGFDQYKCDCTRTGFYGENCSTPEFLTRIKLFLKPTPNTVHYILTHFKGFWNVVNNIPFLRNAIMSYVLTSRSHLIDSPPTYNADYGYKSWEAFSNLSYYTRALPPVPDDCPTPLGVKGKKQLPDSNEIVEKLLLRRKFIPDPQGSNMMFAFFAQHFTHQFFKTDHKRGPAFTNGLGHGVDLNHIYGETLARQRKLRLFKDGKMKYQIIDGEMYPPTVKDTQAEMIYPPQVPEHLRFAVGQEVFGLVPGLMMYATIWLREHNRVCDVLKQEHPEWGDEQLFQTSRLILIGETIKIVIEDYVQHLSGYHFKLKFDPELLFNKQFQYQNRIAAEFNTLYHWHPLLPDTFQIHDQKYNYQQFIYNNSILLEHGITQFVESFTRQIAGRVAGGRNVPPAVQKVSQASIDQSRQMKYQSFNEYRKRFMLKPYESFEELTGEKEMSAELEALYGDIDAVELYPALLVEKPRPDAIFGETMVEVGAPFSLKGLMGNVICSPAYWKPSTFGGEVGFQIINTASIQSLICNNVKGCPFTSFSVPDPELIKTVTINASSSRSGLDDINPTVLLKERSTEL
Briefly: Cyclooxygenase inhibition assay (colorimetric, peroxidase activity, TMPD oxidation). Format: biochemical. The conditions noted are these: for IC50: incubation 2 min, mean ± SD; for Selectivity Ratio: (COX-2/COX-1): ratio of IC50 values. How it is done: as §1
Cyclooxygenase (COX) peroxidase activity was evaluated using a colorimetric assay. […] The incubation period was maintained at 2 min, following the manufacturer’s guidelines. […] IC50 values were then calculated, and the ratio of IC50 values for both cyclooxygenase isoforms allowed us to assess the selectivity of the tested structures for COX-1 and COX-2.

What is called IC50 is the concentration that inhibits the measured activity by half. High values mean weaker potency, low ones greater potency. In the case of `COc1ccc(C(=O)C2=C(O)c3ccccc3S(=O)(=O)N2CCCN2CCN(c3ncccn3)CC2)cc1` [BS24], the 50% inhibitory concentration (IC50) in test [1] was 163 ± 15.7 µM; in test [2], 63.2 ± 2.8 µM; in test [3] it was 127 ± 3.6 µM; in test [4] it was greater than 500 µM; in test [5], 26.3 ± 3.4 µM. Further, the “Selectivity Ratio: (COX-2/COX-1)” value in test [5] is 0.21.

Turning to `Cc1ccc(C(=O)C2=C(O)c3ccccc3S(=O)(=O)N2CCCN2CCN(c3ccccn3)CC2)cc1` [BS25], the IC50 is 200 ± 20.9 µM in test [1]; 75.3 ± 1.4 µM in test [2]; 131 ± 7.5 µM in test [3]; greater than 500 µM in test [4]; 62.6 ± 1.7 µM in test [5]. Also, the “Selectivity Ratio: (COX-2/COX-1)” value in test [5] is listed as 0.48.

As for `O=C(C1=C(O)c2ccccc2S(=O)(=O)N1CCCN1CCN(c2ccccn2)CC1)c1ccc(F)cc1` [BS26], the IC50 is 203 ± 22.9 µM in test [1]; 83.7 ± 3.2 µM in test [2]; 129 ± 9.1 µM in test [3]; greater than 500 µM in test [4]; 18.2 ± 4.3 µM in test [5]. Further, the “Selectivity Ratio: (COX-2/COX-1)” value in test [5] came to 0.14.

Turning to `O=C(C1=C(O)c2ccccc2S(=O)(=O)N1CCCN1CCN(c2ncccn2)CC1)c1ccc(F)cc1` [BS27], the IC50 in test [1] was 191 ± 12.5 µM; in test [2] it was 83.3 ± 2.5 µM; in test [3], 117 ± 4.3 µM; in test [4] it was greater than 500 µM; in test [5], 25.6 ± 2 µM. In addition, the “Selectivity Ratio: (COX-2/COX-1)” value in test [5] came to 0.22.

`O=C(C1=C(O)c2ccccc2S(=O)(=O)N1CCCN1CCN(c2ccccn2)CC1)c1ccc(Br)cc1` [BS29]: the IC50 is 233 ± 11.8 µM in test [1]; 53.7 ± 1.7 µM in test [2]; 125 ± 6.7 µM in test [3]; greater than 500 µM in test [4]; 17.8 ± 2.1 µM in test [5]. Also, the “Selectivity Ratio: (COX-2/COX-1)” value in test [5] is 0.14.

Take `O=C(C1=C(O)c2ccccc2S(=O)(=O)N1CCCN1CCN(c2ncccn2)CC1)c1ccc(Br)cc1` [BS30]: the IC50 was 168 ± 30.4 µM in test [1]; 88.3 ± 1.6 µM in test [2]; 122 ± 3.4 µM in test [3]; greater than 500 µM in test [4]; 59.2 ± 3.7 µM in test [5]. Further, in test [5], the “Selectivity Ratio: (COX-2/COX-1)” value is on record as 0.49.

Regarding `O=C1O[C@H]([C@@H](O)CO)C(O)=C1O` [ascorbic acid, reference compound], the figures for the IC50 in test [2] and in test [4] were 124 ± 2.3 µM and 218.3 ± 1.8 µM, respectively.

On to `Cc1cnc(NC(=O)C2=C(O)c3ccccc3S(=O)(=O)N2C)s1` [meloxicam, reference compound], for which the results for the IC50 in test [1], in test [2] and in test [4] were 174 ± 20.3 µM, 89.5 ± 1.5 µM and greater than 500 µM, respectively.

The values above are taken from publication PMC11678778, “Anti-Inflammatory Properties of Novel 1,2-Benzothiazine Derivatives and Their Interaction with Phospholipid Model Membranes” (Membranes, 2024).
